From ChEMBL document CHEMBL4138296, “Nonacidic Chemotype Possessing N-Acylated Piperidine Moiety as Potent Farnesoid X Receptor (FXR) Antagonists” (ACS Med Chem Lett, 2018) come the findings set out here.

Active and inactive are the calls of the source. The rule behind the calls is not given here. Bounds are passed on as bounds.

Data set [1] concerns the target T1, Bile acid receptor (Homo sapiens, UniProt Q96RI1).
T1 sequence (Q96RI1 whole entry): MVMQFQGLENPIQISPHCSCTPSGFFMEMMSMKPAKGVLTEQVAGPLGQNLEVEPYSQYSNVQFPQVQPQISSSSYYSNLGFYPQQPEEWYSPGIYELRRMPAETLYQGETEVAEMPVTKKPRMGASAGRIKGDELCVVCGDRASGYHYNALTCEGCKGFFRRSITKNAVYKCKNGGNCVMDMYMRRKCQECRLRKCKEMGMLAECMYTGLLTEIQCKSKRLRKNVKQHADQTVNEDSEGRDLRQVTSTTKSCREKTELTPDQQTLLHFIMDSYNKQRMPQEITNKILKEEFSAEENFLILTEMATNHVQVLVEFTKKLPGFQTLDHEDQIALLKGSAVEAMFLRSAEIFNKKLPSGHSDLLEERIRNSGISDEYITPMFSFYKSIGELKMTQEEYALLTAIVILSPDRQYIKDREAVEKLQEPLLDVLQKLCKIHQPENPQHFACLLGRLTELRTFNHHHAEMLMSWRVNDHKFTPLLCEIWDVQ
Briefly: Antagonist activity at human FXR expressed in Hep3B cells assessed as inhibition of CDCA-induced FXR response element driven luciferase activity after 24 hrs. In kind it is cell-based.

The target of data set [2] is T2, Peroxisome proliferator-activated receptor delta (Homo sapiens) (UniProt Q03181).
T2 sequence (whole entry): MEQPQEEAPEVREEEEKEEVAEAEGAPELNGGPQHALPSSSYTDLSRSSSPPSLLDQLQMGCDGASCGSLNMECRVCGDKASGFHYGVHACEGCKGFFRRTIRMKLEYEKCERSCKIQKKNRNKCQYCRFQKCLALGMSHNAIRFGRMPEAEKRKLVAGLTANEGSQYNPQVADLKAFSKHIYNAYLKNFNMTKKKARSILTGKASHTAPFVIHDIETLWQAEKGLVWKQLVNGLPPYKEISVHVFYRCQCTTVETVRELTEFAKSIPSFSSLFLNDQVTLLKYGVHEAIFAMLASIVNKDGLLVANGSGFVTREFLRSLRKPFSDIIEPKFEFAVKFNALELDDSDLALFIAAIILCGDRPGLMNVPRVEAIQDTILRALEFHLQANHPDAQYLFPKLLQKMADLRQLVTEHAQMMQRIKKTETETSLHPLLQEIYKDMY
Kind of data set: Agonist activity at PPARdelta (unknown origin) at 1 uM by luciferase reporter gene assay. For orientation: Reporter assays use an easily measured gene product as a stand-in for the process of interest.

The test system of data set [3] is 3T3-L1. Kind of data set: Antiadipogenic activity in mouse 3T3L1 cells assessed as reduction in intracellular lipid droplets after 6 days by Oil Red O staining based assay. Format: functional, cell-based.
Data set [4] addresses T3, G-protein coupled bile acid receptor 1 (Homo sapiens) (UniProt Q8TDU6).
T3 sequence (whole entry): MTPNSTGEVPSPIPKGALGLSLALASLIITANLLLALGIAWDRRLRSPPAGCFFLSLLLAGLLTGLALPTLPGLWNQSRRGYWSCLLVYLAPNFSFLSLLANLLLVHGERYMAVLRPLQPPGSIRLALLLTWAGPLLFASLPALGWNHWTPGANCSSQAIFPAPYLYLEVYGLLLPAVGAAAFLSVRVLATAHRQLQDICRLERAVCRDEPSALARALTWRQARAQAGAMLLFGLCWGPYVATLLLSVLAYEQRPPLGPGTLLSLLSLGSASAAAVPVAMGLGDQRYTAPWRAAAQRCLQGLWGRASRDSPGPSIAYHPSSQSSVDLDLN
Briefly: Agonist activity at TGR5 (unknown origin) at 1 uM by luciferase reporter gene assay. In kind it is functional.

Data set [5] concerns the target T4, Vitamin D3 receptor (Homo sapiens) (UniProt P11473).
T4 sequence (whole entry): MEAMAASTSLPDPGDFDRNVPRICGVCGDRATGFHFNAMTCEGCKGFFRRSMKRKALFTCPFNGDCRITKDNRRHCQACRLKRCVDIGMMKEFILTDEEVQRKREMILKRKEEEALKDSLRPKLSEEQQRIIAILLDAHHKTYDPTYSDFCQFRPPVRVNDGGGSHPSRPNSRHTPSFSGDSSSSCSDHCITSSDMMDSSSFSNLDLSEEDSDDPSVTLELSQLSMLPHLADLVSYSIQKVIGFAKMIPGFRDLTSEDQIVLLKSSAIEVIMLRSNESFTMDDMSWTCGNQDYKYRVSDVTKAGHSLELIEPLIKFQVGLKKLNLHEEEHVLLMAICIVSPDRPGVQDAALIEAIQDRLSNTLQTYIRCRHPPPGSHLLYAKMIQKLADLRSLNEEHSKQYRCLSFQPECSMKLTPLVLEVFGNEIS
Briefly: Antagonist activity at human VDR expressed in HEK293T cells assessed as inhibition of 1,25(OH)2VD3-induced response at 1 uM after 24 hrs by luciferase reporter gene assay. Format: cell-based.

Data set [6] concerns the target T1, Bile acid receptor. Briefly: Antagonist activity at FXR in human HepG2 cells assessed as inhibition of CYP3A4 mRNA expression level at 0.02 to 2 uM after 48 hrs by RT-PCR analysis. In kind it is ADME, cell-based. Particulars: hepg2, 48 h.
For data set [7], the target named is T2, Peroxisome proliferator-activated receptor delta (Homo sapiens). Briefly: Antagonist activity at PPARdelta (unknown origin) assessed as inhibition of GW501516-induced response at 1 uM by luciferase reporter gene assay.
Data set [8] deals with T1, Bile acid receptor. Briefly: Antagonist activity at GST-tagged FXR LBD (unknown origin) assessed as inhibition of GW4064-induced fluorecein-labeled SRC2-2 coactivator recruitment by Lanthascreen TR-FRET assay. (In TR-FRET formats the signal depends on donor and acceptor labels being close together.)
Data set [9] has as its target T4, Vitamin D3 receptor (Homo sapiens). Briefly: Agonist activity at human VDR expressed in HEK293T cells at 1 uM by luciferase reporter gene assay. Format: cell-based.
The target in data set [10] is T5, Oxysterols receptor LXR-beta (Homo sapiens) (UniProt P55055).
T5 sequence (whole entry): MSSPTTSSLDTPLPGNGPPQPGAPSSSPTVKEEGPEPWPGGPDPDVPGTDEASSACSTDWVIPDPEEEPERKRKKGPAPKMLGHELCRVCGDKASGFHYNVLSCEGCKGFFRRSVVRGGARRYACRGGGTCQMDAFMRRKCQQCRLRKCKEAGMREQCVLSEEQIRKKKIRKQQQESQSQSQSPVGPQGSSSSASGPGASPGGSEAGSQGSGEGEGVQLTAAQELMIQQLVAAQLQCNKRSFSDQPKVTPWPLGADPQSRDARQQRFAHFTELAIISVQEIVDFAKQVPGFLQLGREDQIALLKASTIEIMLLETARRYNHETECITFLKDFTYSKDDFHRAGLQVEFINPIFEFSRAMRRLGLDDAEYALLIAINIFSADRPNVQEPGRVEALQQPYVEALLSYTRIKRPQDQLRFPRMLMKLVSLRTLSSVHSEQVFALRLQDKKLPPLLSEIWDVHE
Kind of data set: Antagonist activity at LXRbeta (unknown origin) assessed as inhibition of TO901317-induced response at 1 uM by luciferase reporter gene assay.

Data set [11] deals with T5, Oxysterols receptor LXR-beta (Homo sapiens). Kind of data set: Agonist activity at LXRbeta (unknown origin) at 1 uM by luciferase reporter gene assay.
Data set [12] concerns 3T3-L1. Kind of data set: Antiadipogenic activity in mouse 3T3L1 cells assessed as inhibition of CDCA-induced triglyceride accumulation after 6 days. In kind it is functional, cell-based.

Take `Cc1ccc2nc([C@H](CC3CCN(C(=O)C(C)C)CC3)N3C(=O)CN(c4ccc(Oc5ccccc5)cc4)C3=O)n(C)c2c1`: the IC50 is under 0.001 nM at Bile acid receptor [1] and 35 nM on Bile acid receptor [8]. Moreover, the outcome in [2], in data set [4], in data set [9] and in [11] was inactive. The Activity result with 3T3-L1 [3] is “Dose-dependent effect”. Moreover, the inhibition entry in [5], in data set [7] and in data set [10] was “inactive” throughout. The “inhibition (INH)” value at Bile acid receptor [6] is given as “Not Active”. In the data set on 3T3-L1 [12], the inhibition entry is “Dose-dependent effect”.

Usually IC50 stands for the midpoint of a concentration-inhibition curve.
